Results: PubChem BioAssay (NCI)
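Each compound was tested at five concentrations against cells in 96-well plates for 48 hours. TGI: concentration producing complete growth inhibition.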

Columns and labels:
Test in all cases: NCI anticancer screen, dose series, 48 h
786-0 renal = test system: 786-0 renal
A498 renal = test system: A498 renal
A549 NSCLC = test system: A549 NSCLC
ACHN renal = test system: ACHN renal
CCRF-CEM leukemia = test system: CCRF-CEM leukemia
COLO 205 colon = test system: COLO 205 colon
DLD-1 colon = test system: DLD-1 colon
DMS 114 small cell lung = test system: DMS 114 small cell lung
DMS 273 small cell lung = test system: DMS 273 small cell lung
EKVX NSCLC = test system: EKVX NSCLC
HCT-116 colon = test system: HCT-116 colon
HCT-15 colon = test system: HCT-15 colon
HL-60(TB) leukemia = test system: HL-60(TB) leukemia
HOP-18 NSCLC = test system: HOP-18 NSCLC
HT29 colon = test system: HT29 colon
IGROV1 ovarian = test system: IGROV1 ovarian
K-562 leukemia = test system: K-562 leukemia
KM12 colon = test system: KM12 colon
KM20L2 colon = test system: KM20L2 colon
LOX IMVI melanoma = test system: LOX IMVI melanoma
LXFL 529 NSCLC = test system: LXFL 529 NSCLC
M19-MEL melanoma = test system: M19-MEL melanoma
MALME-3M melanoma = test system: MALME-3M melanoma
MOLT-4 leukemia = test system: MOLT-4 leukemia
NCI-H23 lung = test system: NCI-H23 lung
NCI-H460 lung = test system: NCI-H460 lung
NCI-H522 lung = test system: NCI-H522 lung
OVCAR-4 ovarian = test system: OVCAR-4 ovarian
OVCAR-5 ovarian = test system: OVCAR-5 ovarian
OVCAR-8 ovarian = test system: OVCAR-8 ovarian
RPMI-8226 leukemia = test system: RPMI-8226 leukemia
RXF 393 renal = test system: RXF 393 renal
SF-268 CNS = test system: SF-268 CNS
SF-295 CNS = test system: SF-295 CNS
SF-539 CNS = test system: SF-539 CNS
SK-MEL-2 melanoma = test system: SK-MEL-2 melanoma
SK-MEL-28 melanoma = test system: SK-MEL-28 melanoma
SK-MEL-5 melanoma = test system: SK-MEL-5 melanoma
SK-OV-3 ovarian = test system: SK-OV-3 ovarian
SN12C renal = test system: SN12C renal
SNB-19 CNS = test system: SNB-19 CNS
SNB-75 CNS = test system: SNB-75 CNS
SNB-78 CNS = test system: SNB-78 CNS
SR leukemia = test system: SR leukemia
SW-620 colon = test system: SW-620 colon
TK-10 renal = test system: TK-10 renal
U251 CNS = test system: U251 CNS
UACC-257 melanoma = test system: UACC-257 melanoma
UACC-62 melanoma = test system: UACC-62 melanoma
UO-31 renal = test system: UO-31 renal
CAKI-1 renal = test system: CAKI-1 renal
HCC-2998 colon = test system: HCC-2998 colon
HOP-62 NSCLC = test system: HOP-62 NSCLC
HOP-92 NSCLC = test system: HOP-92 NSCLC
M14 melanoma = test system: M14 melanoma
NCI-H226 lung = test system: NCI-H226 lung
OVCAR-3 ovarian = test system: OVCAR-3 ovarian
XF 498 CNS = test system: XF 498 CNS

CN(C)CC/C(=N\Nc1c(F)c(F)c(F)c(F)c1F)c1ccccc1
TGI (786-0 renal): > 100 µM | TGI (A498 renal): > 100 µM | TGI (A549 NSCLC): > 100 µM | TGI (ACHN renal): > 100 µM | TGI (CCRF-CEM leukemia): 95.5 µM | TGI (COLO 205 colon): > 100 µM | TGI (DLD-1 colon): > 100 µM | TGI (DMS 114 small cell lung): 79.2 µM | TGI (DMS 273 small cell lung): > 100 µM | TGI (EKVX NSCLC): > 100 µM | TGI (HCT-116 colon): > 100 µM | TGI (HCT-15 colon): > 100 µM | TGI (HL-60(TB) leukemia): 28.2 µM | TGI (HOP-18 NSCLC): > 100 µM | TGI (HT29 colon): > 100 µM | TGI (IGROV1 ovarian): > 100 µM | TGI (K-562 leukemia): > 100 µM | TGI (KM12 colon): > 100 µM | TGI (KM20L2 colon): > 100 µM | TGI (LOX IMVI melanoma): > 100 µM | TGI (LXFL 529 NSCLC): > 100 µM | TGI (M19-MEL melanoma): > 100 µM | TGI (MALME-3M melanoma): > 100 µM | TGI (MOLT-4 leukemia): > 100 µM | TGI (NCI-H23 lung): > 100 µM | TGI (NCI-H460 lung): > 100 µM | TGI (NCI-H522 lung): > 100 µM | TGI (OVCAR-4 ovarian): > 100 µM | TGI (OVCAR-5 ovarian): > 100 µM | TGI (OVCAR-8 ovarian): > 100 µM | TGI (RPMI-8226 leukemia): 70.5 µM | TGI (RXF 393 renal): > 100 µM | TGI (SF-268 CNS): > 100 µM | TGI (SF-295 CNS): > 100 µM | TGI (SF-539 CNS): > 100 µM | TGI (SK-MEL-2 melanoma): > 100 µM | TGI (SK-MEL-28 melanoma): > 100 µM | TGI (SK-MEL-5 melanoma): 28 µM | TGI (SK-OV-3 ovarian): > 100 µM | TGI (SN12C renal): > 100 µM | TGI (SNB-19 CNS): > 100 µM | TGI (SNB-75 CNS): 13.1 µM | TGI (SNB-78 CNS): > 100 µM | TGI (SR leukemia): 47.9 µM | TGI (SW-620 colon): > 100 µM | TGI (TK-10 renal): > 100 µM | TGI (U251 CNS): > 100 µM | TGI (UACC-257 melanoma): 80.6 µM | TGI (UACC-62 melanoma): > 100 µM | TGI (UO-31 renal): 63.4 µM

CSC1C=C(C(C)C)CCC1(C)SC (stereo unspecified)
TGI (786-0 renal): 31.7 µM | TGI (A498 renal): 40.4 µM | TGI (A549 NSCLC): 78.4 µM | TGI (ACHN renal): 32.6 µM | TGI (CAKI-1 renal): 32.4 µM | TGI (CCRF-CEM leukemia): 57 µM | TGI (COLO 205 colon): 29.7 µM | TGI (DLD-1 colon): 32.4 µM | TGI (DMS 114 small cell lung): 30.6 µM | TGI (DMS 273 small cell lung): 33 µM | TGI (EKVX NSCLC): 44.7 µM | TGI (HCC-2998 colon): 30.9 µM | TGI (HCT-116 colon): 37.1 µM | TGI (HCT-15 colon): 39.9 µM | TGI (HL-60(TB) leukemia): 27.8 µM | TGI (HOP-62 NSCLC): 35.5 µM | TGI (HOP-92 NSCLC): 31.2 µM | TGI (HT29 colon): 29.6 µM | TGI (IGROV1 ovarian): 35.5 µM | TGI (K-562 leukemia): 40.9 µM | TGI (KM12 colon): 27.7 µM | TGI (KM20L2 colon): 56.8 µM | TGI (LOX IMVI melanoma): 32.5 µM | TGI (LXFL 529 NSCLC): 32.9 µM | TGI (M14 melanoma): 32 µM | TGI (M19-MEL melanoma): 31.3 µM | TGI (MALME-3M melanoma): 26.1 µM | TGI (MOLT-4 leukemia): 40 µM | TGI (NCI-H226 lung): 31.6 µM | TGI (NCI-H23 lung): 35.7 µM | TGI (NCI-H460 lung): 30.9 µM | TGI (NCI-H522 lung): 31.6 µM | TGI (OVCAR-3 ovarian): 25.2 µM | TGI (OVCAR-4 ovarian): 33.9 µM | TGI (OVCAR-5 ovarian): 30.5 µM | TGI (OVCAR-8 ovarian): 35.5 µM | TGI (RPMI-8226 leukemia): 59.4 µM | TGI (RXF 393 renal): 29 µM | TGI (SF-268 CNS): 35.1 µM | TGI (SF-539 CNS): 33.6 µM | TGI (SK-MEL-2 melanoma): 32.8 µM | TGI (SK-MEL-28 melanoma): 34.2 µM | TGI (SK-MEL-5 melanoma): 31.3 µM | TGI (SK-OV-3 ovarian): 39.3 µM | TGI (SN12C renal): 30.6 µM | TGI (SNB-19 CNS): 36.9 µM | TGI (SNB-75 CNS): 31.7 µM | TGI (SNB-78 CNS): 32.3 µM | TGI (SW-620 colon): 38 µM | TGI (TK-10 renal): 41.4 µM | TGI (U251 CNS): 33.7 µM | TGI (UACC-257 melanoma): 29.4 µM | TGI (UACC-62 melanoma): 47.6 µM | TGI (UO-31 renal): 27.4 µM | TGI (XF 498 CNS): 33.8 µM

CC1=Nn2c(nnc2-c2ccccc2Cl)NC(C)(C)C1
TGI (786-0 renal): > 100 µM | TGI (A549 NSCLC): > 100 µM | TGI (ACHN renal): > 100 µM | TGI (CAKI-1 renal): > 100 µM | TGI (CCRF-CEM leukemia): > 100 µM | TGI (COLO 205 colon): > 100 µM | TGI (DLD-1 colon): > 100 µM | TGI (DMS 273 small cell lung): > 100 µM | TGI (EKVX NSCLC): > 100 µM | TGI (HCC-2998 colon): > 100 µM | TGI (HCT-116 colon): > 100 µM | TGI (HCT-15 colon): > 100 µM | TGI (HL-60(TB) leukemia): > 100 µM | TGI (HOP-62 NSCLC): > 100 µM | TGI (HOP-92 NSCLC): > 100 µM | TGI (HT29 colon): > 100 µM | TGI (IGROV1 ovarian): > 100 µM | TGI (K-562 leukemia): > 100 µM | TGI (KM12 colon): > 100 µM | TGI (KM20L2 colon): > 100 µM | TGI (LOX IMVI melanoma): > 100 µM | TGI (LXFL 529 NSCLC): > 100 µM | TGI (M14 melanoma): > 100 µM | TGI (M19-MEL melanoma): > 100 µM | TGI (MOLT-4 leukemia): > 100 µM | TGI (NCI-H226 lung): > 100 µM | TGI (NCI-H23 lung): > 100 µM | TGI (NCI-H460 lung): > 100 µM | TGI (NCI-H522 lung): > 100 µM | TGI (OVCAR-4 ovarian): > 100 µM | TGI (OVCAR-5 ovarian): > 100 µM | TGI (OVCAR-8 ovarian): > 100 µM | TGI (RPMI-8226 leukemia): 54.3 µM | TGI (SF-268 CNS): > 100 µM | TGI (SF-295 CNS): > 100 µM | TGI (SF-539 CNS): > 100 µM | TGI (SK-MEL-2 melanoma): > 100 µM | TGI (SK-MEL-28 melanoma): > 100 µM | TGI (SK-MEL-5 melanoma): > 100 µM | TGI (SK-OV-3 ovarian): > 100 µM | TGI (SN12C renal): > 100 µM | TGI (SNB-19 CNS): > 100 µM | TGI (SNB-75 CNS): > 100 µM | TGI (SNB-78 CNS): > 100 µM | TGI (SR leukemia): 74.4 µM | TGI (SW-620 colon): 35.8 µM | TGI (TK-10 renal): > 100 µM | TGI (U251 CNS): > 100 µM | TGI (UACC-62 melanoma): > 100 µM | TGI (UO-31 renal): > 100 µM | TGI (XF 498 CNS): > 100 µM
